Reference: publication PMC5034901, “Development & automation of a novel [^18F]F prosthetic group, 2-[^18F]-fluoro-3-pyridinecarboxaldehyde, and its application to an amino(oxy)-functionalised Aβ peptide” (Applied Radiation and Isotopes, 2016)

Experiment: Pre-clinical PET biodistribution
Format: in vivo
Conditions: Wistar rats, radiolabel carried on [18F]RI-OR2-TAT
Method: Wistar rats (n =3) were anaesthetised using isoflurane (induction 4% and maintained 1.5%) in 70% N2O and 30% O2 mixture. […] All scans were carried out using a Siemens Inveon® PET-CT scanner. The acquisition protocol parameters consisted of a preliminary CT scan to attain attenuation correction factors followed by a 1 h PET acquisition with time coincidence window of 3.432 ns and levels of energy discrimination set between 350 keV and 650 keV. Images were reconstructed and analysed as described elsewhere ([Boutin et al., 2015]).

With O=Cc1cccnc1[18F] [[^18F]FPCA, 2-[^18F]-Fluoro-3-pyridinecarboxaldehyde] the “stability to defluorination (bone uptake of radioactivity)” value was “relatively little bone uptake”.
